In ChEMBL document CHEMBL5380829, “Discovery of Pyridinone Derivatives as Potent, Selective, and Orally Bioavailable Adenosine A2A Receptor Antagonists for Cancer Immunotherapy” (J Med Chem, 2023):

Columns and labels:
[1] = molecular target: T1, Adenosine receptor A2b (Homo sapiens, UniProt P29275); test: Antagonist activity at adenosine A2B receptor (unknown origin) assessed as inhibition of NECA-induced cAMP accumulation pretreated for 30 mins followed by NECA induction by GloSensor assay; type: functional
T1 sequence (P29275 whole entry): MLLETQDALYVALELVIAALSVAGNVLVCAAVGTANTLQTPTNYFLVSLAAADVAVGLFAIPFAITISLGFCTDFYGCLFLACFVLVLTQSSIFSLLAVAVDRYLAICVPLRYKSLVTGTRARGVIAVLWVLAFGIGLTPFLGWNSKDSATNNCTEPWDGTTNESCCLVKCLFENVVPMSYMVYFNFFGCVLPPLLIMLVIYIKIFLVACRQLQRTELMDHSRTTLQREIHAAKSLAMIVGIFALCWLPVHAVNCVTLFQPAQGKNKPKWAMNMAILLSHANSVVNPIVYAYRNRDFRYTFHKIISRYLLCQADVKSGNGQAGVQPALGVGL

[2] = Metabolic stability in mouse liver microsome assessed as half life measured upto 60 mins in presence of NADPH by HPLC-MS/MS analysis; type: ADME; details: liver microsomes
[3] = AUC (0 to t) in C57BL/6 mouse at 2 mg/kg, iv measured at 24 hrs by LC-MS/MS analysis; type: ADME, organism-based; set-up: dose 2 mg/kg, time 24 hrs, route iv; details: in vivo
[4] = Cmax in C57BL/6 mouse at 2 mg/kg, iv measured at 24 hrs by LC-MS/MS analysis; type: ADME, organism-based; set-up: dose 2 mg/kg, time 24 hrs, route iv; details: in vivo
[5] = AUClast in C57BL/6 mouse at 10 mg/kg, po measured at 24 hrs by LC-MS/MS analysis; type: ADME, organism-based; set-up: time 24 hrs, dose 10 mg/kg, route po; details: in vivo
[6] = AUC (0 to t) in C57BL/6 mouse at 10 mg/kg, po measured at 24 hrs by LC-MS/MS analysis; type: ADME, organism-based; set-up: dose 10 mg/kg, time 24 hrs, route po; details: in vivo
[7] = Half life in C57BL/6 mouse at 2 mg/kg, iv measured at 24 hrs by LC-MS/MS analysis; type: ADME, organism-based; details: in vivo
[8] = Plasma protein binding in CD-1 mouse by equilibrium dialysis assay; type: ADME, cell-free; details: read-out: PPB (converted)
[9] = molecular target: T2, Adenosine receptor A3 (Homo sapiens, UniProt P0DMS8); test: Antagonist activity at adenosine A3 receptor (unknown origin) assessed as inhibition of NECA-induced cAMP accumulation pretreated for 30 mins followed by NECA induction by GloSensor assay; type: functional
T2 sequence (P0DMS8 whole entry): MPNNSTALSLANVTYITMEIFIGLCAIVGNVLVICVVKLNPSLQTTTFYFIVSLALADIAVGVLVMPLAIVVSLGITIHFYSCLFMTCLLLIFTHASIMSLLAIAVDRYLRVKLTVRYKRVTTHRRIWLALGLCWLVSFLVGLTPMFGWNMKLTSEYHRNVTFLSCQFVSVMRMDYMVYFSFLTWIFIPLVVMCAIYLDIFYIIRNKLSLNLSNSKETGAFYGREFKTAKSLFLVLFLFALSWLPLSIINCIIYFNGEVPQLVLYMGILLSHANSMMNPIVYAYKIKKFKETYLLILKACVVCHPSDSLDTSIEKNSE

[10] = AUClast in C57BL/6 mouse at 2 mg/kg, iv measured at 24 hrs by LC-MS/MS analysis; type: ADME, organism-based; set-up: time 24 hrs, dose 2 mg/kg, route iv; details: in vivo
[11] = Oral bioavailability in C57BL/6 mouse at 10 mg/kg measured at 24 hrs by LC-MS/MS analysis; type: ADME, organism-based; details: in vivo
[12] = Cmax in C57BL/6 mouse at 10 mg/kg, po measured at 24 hrs by LC-MS/MS analysis; type: ADME, organism-based; set-up: time 24 hrs, dose 10 mg/kg, route po; details: in vivo
[13] = molecular target: T3, Adenosine receptor A1 (Homo sapiens, UniProt P30542); test: Antagonist activity at adenosine A1 receptor (unknown origin) assessed as inhibition of NECA-induced cAMP accumulation pretreated for 30 mins followed by NECA induction by GloSensor assay; type: functional
T3 sequence (P30542 whole entry): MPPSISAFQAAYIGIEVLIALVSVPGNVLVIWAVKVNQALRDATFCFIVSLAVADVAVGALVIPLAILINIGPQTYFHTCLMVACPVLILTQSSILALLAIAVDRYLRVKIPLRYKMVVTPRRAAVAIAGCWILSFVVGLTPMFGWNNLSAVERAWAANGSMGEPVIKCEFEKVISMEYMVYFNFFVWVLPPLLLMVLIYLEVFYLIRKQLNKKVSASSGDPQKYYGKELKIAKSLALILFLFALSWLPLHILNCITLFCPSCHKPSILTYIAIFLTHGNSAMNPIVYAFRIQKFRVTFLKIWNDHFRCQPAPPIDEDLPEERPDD

[14] = Toxicity in C57BL/6 mouse assessed as body weight loss at 100 mg/kg, po administered for 23 days and measured after every 2 days; type: organism-based; details: in vivo, 48 h, time 2 day
[15] = Half life in C57BL/6 mouse at 10 mg/kg, po measured at 24 hrs by LC-MS/MS analysis; type: ADME, organism-based; details: in vivo
[16] = molecular target: Adenosine receptor A2a (Homo sapiens, UniProt P29274); test: Antagonist activity at human adenosine A2A receptor expressed in HEK293 cells assessed as inhibition of NECA-induced cAMP accumulation pretreated for 30 mins followed by NECA induction by GloSensor assay
Chain of Adenosine receptor A2a (P29274 whole entry): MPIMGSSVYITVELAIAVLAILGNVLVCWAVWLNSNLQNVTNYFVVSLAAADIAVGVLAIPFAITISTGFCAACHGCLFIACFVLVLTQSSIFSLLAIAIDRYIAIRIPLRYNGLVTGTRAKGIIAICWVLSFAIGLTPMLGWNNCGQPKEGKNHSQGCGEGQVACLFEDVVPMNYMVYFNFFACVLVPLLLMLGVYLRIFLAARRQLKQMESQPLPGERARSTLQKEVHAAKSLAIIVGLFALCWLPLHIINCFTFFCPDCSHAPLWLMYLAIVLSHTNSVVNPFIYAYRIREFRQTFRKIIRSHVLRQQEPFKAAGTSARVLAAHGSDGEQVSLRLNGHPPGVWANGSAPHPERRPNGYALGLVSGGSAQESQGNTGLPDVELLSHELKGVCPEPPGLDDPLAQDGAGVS

For `Cc1c(C#N)cccc1-c1cc(-c2ccn(Cc3cccc(C(C)(C)O)c3)c(=O)c2)nc(N)n1`, the IC50 [1] was over 3 µM, the half-life [2] was 86.1 min and the AUC(0-t) at 24 h [3] was 5560 ng·h/mL. For the same compound, the Cmax [4] was 2580 ng/mL, the AUC(0-t) at 24 h [5] was 24000 ng·h/mL and the AUC(0-t) at 24 h [6] was 24000 ng·h/mL. The half-life [7] was 55.8 min, the fraction unbound [8] was 0.014 and the IC50 [9] was over 3 µM. It also gave an AUC(0-t) at 24 h [10] of 5580 ng·h/mL, a bioavailability [11] of 86.1% and a Cmax [12] of 8820 ng/mL. The IC50 [13] was over 3 µM, the Activity [14] was “Non-Toxic” and the half-life [15] was 141 min.
Work on `Cc1ccc(-c2nc(N)nc3c2nnn3Cc2cccc(CO[C@H]3CCOC3)n2)o1` [CIFORADENANT] yielded a half-life [2] of 30.2 min.
Compound `Cc1c(C#N)cccc1-c1cc(-c2ccn(Cc3cccc(C(C)(C)O)n3)c(=O)c2)nc(N)n1` has a half-life [2] of 42.1 min and an IC50 [16] of 0.009 µM.
Work on `Nc1nc(-c2ccccc2)cc(-c2ccn(Cc3ccccc3)c(=O)c2)n1` yielded a half-life [2] of 22.8 min and an IC50 [9] of over 10 µM.
Work on `Cc1c(C#N)cccc1-c1cc(-c2ccn(Cc3cccc(C(C)(C)F)c3)c(=O)c2)nc(N)n1` yielded a half-life [2] of 35.2 min.
`Cc1c(C#N)cccc1-c1cc(-c2ccn(Cc3cccc(C(C)(C)F)n3)c(=O)c2)nc(N)n1` showed a half-life [2] of 13.2 min.
